Structures can show the parent of a compound that is named as a salt. One block for each molecule: values may come before it.
Legend:
[1] = molecular target: T1, bovine serum albumin (BSA) (Bos taurus, UniProt P02769); assay: Protein binding studies: BSA solution, centrifugal filter devices, drug in filtrate by HPLC; format: in vitro ADME; conditions: 37° C.; for % Protein Binding: didanosine derivatives of Examples 24 and 25, 4% BSA; for % Albumin binding: method of Example 7, 4% BSA
T1 construct: a solution of bovine serum albumin (BSA) in water
Experimental: The compound (approximately 5 mg) was dissolved in DMSO (approximately 1.8 ml). A small sample of this DMSO solution (approximately 5 mg) was added to a solution of bovine serum albumin (BSA) in water (approximately 1.8 ml, 4% BSA). Another sample of the DMSO solution (approximately 5 mg) was added to a solution of phosphate buffer pH 7.4 (isotonic) (approximately 1.8 ml).
Both samples were shaken in a water bath for 30 minutes at 37° C.
The devices were centrifugated at 4000 rpm for 1 hour at 37° C.
The amount of drug in the filtrates was determined by HPLC (C-18 column, phosphate buffer pH 2.2/acetonitrile, UV detection).

[2] = test system: nude mice; assay: Toxicity of 5-O-(azelaoyl) 1-beta-D-arabinofuranosyl-cytosine meglumine salt in nude mice; format: in vivo; conditions: 8.5 mg/ml solution, 0.1 ml i.p. twice (second injection on day 3), nude mice (20 g) with implanted human colon cancer, observed for 13 days
Experimental: (§1) A solution of 5′-O-(azelaoyl) 1-β-D-arabinofuranosyl-cytosine meglumine salt was prepared by dissolving N-methyl-D-glucamine (6.0 mg, 0.030 mmol) and 5′-O-(azelaoyl) 1-β-D-arabinofuranosyl-cytosine (8.5 mg, 0.020 mmol) in a sterile saline solution (1.0 ml). The solution was shaken with a ESPE Capmix shaker for 60 seconds before injection.
(§2) The solution for injection (azelaoyl derivative) from Example 46 was administered i.p. twice (0.1 ml) to 4 nude mice (20 g). The mice had implanted human colon cancer on the leg. The second injection was on day 3.

[3] = test system: implanted human colon cancer; assay: Efficacy of cytarabin azelaic acid derivative versus cytarabin, tumor size in nude mice; format: in vivo; conditions: solutions of Example 46, 0.1 ml i.p. twice, tumor size determined at day 13
Experimental: A solution of cytarabin hydrochloride was prepared by dissolving the hydrochloride salt (5.0 mg) in a sterile saline solution (1.0 ml). The solution was shaken with a ESPE Capmix shaker for 60 seconds before injection.
as §1, §2
The solutions (cytarabin and cytarabine azelaic derivative) described in Example 46 were injected as described in Example 47 (4 animals in each group). The size of the tumor was determined at day 13.

[4] = 6-mercaptopurine and 6-mercaptopurine prodrugs
[5] = didanosine and didanosine prodrugs

T1 sequence (P02769 25-607): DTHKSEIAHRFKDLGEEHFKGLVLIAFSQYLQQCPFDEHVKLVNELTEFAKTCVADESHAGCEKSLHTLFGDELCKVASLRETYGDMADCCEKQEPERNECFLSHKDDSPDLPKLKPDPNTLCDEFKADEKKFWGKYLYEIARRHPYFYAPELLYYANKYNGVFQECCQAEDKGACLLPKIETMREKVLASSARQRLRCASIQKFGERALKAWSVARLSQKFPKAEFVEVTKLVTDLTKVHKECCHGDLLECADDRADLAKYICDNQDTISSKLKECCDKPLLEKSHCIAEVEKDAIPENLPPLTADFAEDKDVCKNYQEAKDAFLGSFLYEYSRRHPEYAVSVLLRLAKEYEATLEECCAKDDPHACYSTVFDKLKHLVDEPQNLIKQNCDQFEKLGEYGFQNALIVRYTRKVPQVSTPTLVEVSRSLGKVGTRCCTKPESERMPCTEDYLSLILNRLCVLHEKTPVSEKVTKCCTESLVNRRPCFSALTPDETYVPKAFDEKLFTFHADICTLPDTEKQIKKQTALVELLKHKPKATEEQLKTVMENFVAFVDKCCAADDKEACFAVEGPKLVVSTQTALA

SMILES: O=C(O)Cc1ccccc1CC(=O)OC[C@@H]1CC[C@H](n2cnc3c(O)ncnc32)O1 [5′-(2′3′-dideoxyinosine) mono 1,2-benzenediacetic acid ester]
% Protein Binding [1]: 25%

SMILES: O=C(O)CCc1ccc(CCC(=O)OC[C@@H]2CC[C@H](n3cnc4c(O)ncnc43)O2)cc1 [5′-(2′3′-dideoxyinosine) mono 1,4-benzenedipropionic acid ester]
% Protein Binding [1]: 63%

SMILES: O=C(O)Cc1cccc(CC(=O)OC[C@@H]2CC[C@H](n3cnc4c(O)ncnc43)O2)c1 [5′-(2′,3′-dideoxyinosine) mono 1,3-benzenediacetic acid ester]
% Protein Binding [1]: 38%

SMILES: O=C(O)c1cccc(C(=O)OC[C@@H]2CC[C@H](n3cnc4c(O)ncnc43)O2)c1 [5′-(2′,3′-dideoxyinosine) mono 1,3-benzenedicarboxylic acid ester]
% Protein Binding [1]: 51%

SMILES: O=C(O)Cc1ccc(CC(=O)OC[C@@H]2CC[C@H](n3cnc4c(O)ncnc43)O2)cc1 [5′-(2′,3′-dideoxyinosine) mono 1,4-benzenediacetic acid ester]
% Protein Binding [1]: 28%

SMILES: O=C(O)c1ccc(C(=O)OC[C@@H]2CC[C@H](n3cnc4c(O)ncnc43)O2)cc1 [5′-(2′,3′-dideoxyinosine) mono 1,4-benzenedicarboxylic acid ester]
% Protein Binding [1]: 44%

% Albumin binding [1, 4]: 10%
SMILES: Sc1ncnc2nc[nH]c12 [6-Mercaptopurine, reference compound]

% Albumin binding [1, 4]: 72%
SMILES: COC(=O)CCCCCSc1ncnc2[nH]cnc12 [Example 9, 6-(1H-purin-6-ylthio)-hexanoic acid methyl ester]

% Albumin binding [1, 4]: insoluble
SMILES: COC(=O)CCCCCCCCCCCSc1ncnc2[nH]cnc12 [Example 10, 12-(1H-purin-6-ylthio)-dodecanoic acid methyl ester]

% Albumin binding [1, 4]: 100%
SMILES: O=C(O)CCCCCCCCCCCSc1ncnc2[nH]cnc12 [Example 11, 12-(1H-purin-6-ylthio)dodecanoic acid]

% Albumin binding [1, 5]: 100%
SMILES: O=C(O)CCCCC(=O)OCC1CCC(n2cnc3c(=O)[nH]cnc32)O1 (stereo not drawn) [Example 21, 2′,3′-dideoxy-5′-hydrogen hexanedioate inosine]

% Albumin binding [1, 5]: 10%
SMILES: O=C(O)CCCCCCC(=O)OCC1CCC(n2cnc3c(=O)[nH]cnc32)O1 (stereo not drawn) [Example 22, 2′,3′-dideoxy-5′-hydrogen octanedioate inosine]

% Albumin binding [1, 5]: 40%
SMILES: O=C(O)CCCCCCCCCCC(=O)OCC1CCC(n2cnc3c(=O)[nH]cnc32)O1 (stereo not drawn) [Example 23, 2′,3′-dideoxy-5′-hydrogen dodecanedioate inosine]

SMILES: CC(C)(C)OC(=O)OC[C@@H]1CC[C@H](n2cnc3c(O)ncnc32)O1 [Example 24, 5′-Boc,-2′3′-dideoxyinosine]
% Albumin binding [1, 5]: 94%
% Protein Binding [1]: 8%

SMILES: CNC[C@H](O)[C@@H](O)[C@H](O)[C@H](O)CO.Nc1ccn([C@@H]2O[C@H](COC(=O)CCCCCCCC(=O)O)[C@@H](O)[C@@H]2O)c(=O)n1 [Example 45, 5′-O-(azelaoyl) 1-β-D-arabinofuranosyl-cytosine meglumine salt]
sign of toxicity [2]: did not show any sign of toxicity
average tumor growth [3]: average tumor growth was higher for cytarabin treated mice than for mice treated with azelaic acid derivative

SMILES: Nc1ccn([C@@H]2O[C@H](CO)[C@@H](O)[C@@H]2O)c(=O)n1 [cytarabin, cytarabin hydrochloride, reference compound]
average tumor growth [3]: higher for cytarabin treated mice than for mice treated with azelaic acid derivative

Reference: US20080103110A1, “Compounds” (DRUG DISCOVERY LABORATORY AS, priority 2004, published 2008)
